A value given as a limit tells only on which side of the number the result lay.

Assay [1] relates to CCRF-CEM. Description: Inhibition of cellular growth against human (CCRF-CEM) leukemias (ATCC) deficient in thymidine kinase.
Assay [2] deals with L1210. The assay is described as follows: Inhibition of cellular growth against mouse (L1210) deficient in thymidine kinase.
For assay [3], the system named is GC3/MTK-. Description: Inhibition of cellular growth against human adenocarcinoma (GC3/M TK-) deficient in thymidine kinase.
The target in assay [4] is Thymidylate synthase (Escherichia coli) (UniProt C3SWJ7).
Sequence of Thymidylate synthase (Escherichia coli) (C3SWJ7 1-264): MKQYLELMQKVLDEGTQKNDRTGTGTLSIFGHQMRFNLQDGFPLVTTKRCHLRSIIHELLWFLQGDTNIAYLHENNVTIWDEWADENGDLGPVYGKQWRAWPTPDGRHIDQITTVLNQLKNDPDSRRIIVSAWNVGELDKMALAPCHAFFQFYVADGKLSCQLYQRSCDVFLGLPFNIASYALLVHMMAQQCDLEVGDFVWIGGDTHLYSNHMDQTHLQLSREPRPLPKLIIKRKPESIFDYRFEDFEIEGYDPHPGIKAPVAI
Description: Inhibition of Thymidylate synthase of Escherichia coli (Kii)
For assay [5], the target named is Thymidylate synthase (Escherichia coli, UniProt C3SWJ7).
Sequence of Thymidylate synthase (Escherichia coli, UniProt C3SWJ7) (C3SWJ7 whole entry): as the sequence (C3SWJ7 1-264) above
Description: Inhibition of Thymidylate synthase of Escherichia coli (Ki)
The target of assay [6] is Thymidylate synthase (Homo sapiens, UniProt P04818).
Sequence of Thymidylate synthase (Homo sapiens, UniProt P04818) (P04818 whole entry): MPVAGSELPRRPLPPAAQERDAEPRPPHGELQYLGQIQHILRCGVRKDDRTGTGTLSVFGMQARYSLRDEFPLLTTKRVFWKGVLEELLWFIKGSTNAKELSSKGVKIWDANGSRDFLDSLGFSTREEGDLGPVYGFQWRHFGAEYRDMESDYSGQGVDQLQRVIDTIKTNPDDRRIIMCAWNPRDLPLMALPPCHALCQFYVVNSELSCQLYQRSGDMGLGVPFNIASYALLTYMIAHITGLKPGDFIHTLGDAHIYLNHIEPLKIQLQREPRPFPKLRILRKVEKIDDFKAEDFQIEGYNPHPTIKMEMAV
Description: Inhibition of human Thymidylate synthase (Ki)
Assay [7] relates to L1210. Description: Inhibition of cellular growth against mouse (L1210) deficient in thymidine kinase.
The test system of assay [8] is CCRF-CEM. Description: Inhibition of cellular growth against human (CCRF-CEM) leukemias (ATCC) deficient in thymidine kinase.
The subject of assay [9] is GC3/MTK-. The assay is described as follows: Inhibition of cellular growth against human adenocarcinoma (GC3/M TK-) deficient in thymidine kinase.

Turning to `C#CCN(Cc1ccc2nc(C)nc(O)c2c1)c1ccc(S(=O)(=O)c2ccccc2)cc1`, the values for the 50% inhibitory concentration (IC50) with CCRF-CEM [1], with L1210 [2] and in the assay on GC3/MTK- [3] were 1600 nM, 1000 nM and 1100 nM, respectively.

For `CCN(Cc1ccc(S(=O)(=O)N2CCNCC2)cc1)c1ccc2c3c(cccc13)C(=O)N2`, the half-inhibitory concentration (IC50) with L1210 [2] was 6000 nM.

Consider `C#CCN(Cc1ccc2nc(C)nc(O)c2c1)c1ccc(S(=O)(=O)n2ccc3ccccc32)cc1`, for which the results for the half-inhibitory concentration (IC50) with CCRF-CEM [1], in the assay on L1210 [2] and in the assay on GC3/MTK- [3] were 1300 nM, 300 nM and 1500 nM, respectively.

The compound `C#CCN(Cc1ccc2nc(C)nc(O)c2c1)c1ccc(C(=O)NC(CCC(=O)O)C(=O)O)cc1` (centres undefined) showed a Kii in [4] of 0.013 µM. For the same compound, the IC50 with CCRF-CEM [1] turned out to be 43 nM; in the assay with L1210 [2], 59 nM; in the assay with GC3/MTK- [3] it was 49 nM. Besides, the inhibition constant (Ki) on Thymidylate synthase [5] stood at 4.8 nM; on Thymidylate synthase [6], 8.5 nM.

With `O=S(=O)(c1ccc(CN2CCCc3cc4[nH]cnc4cc32)cc1)N1CCNCC1`, the values for the IC50 in the assay with CCRF-CEM [1], in the assay with L1210 [2] and with GC3/MTK- [3] were 11000 nM, 20000 nM and 43000 nM, respectively. On Thymidylate synthase [5], this compound came in with an inhibitory constant (Ki) of 4900 nM.

For `C#CCN(Cc1ccc2nc(C)nc(O)c2c1)c1ccccc1`, the IC50 in the assay with L1210 [7], in the assay with GC3/MTK- [3] and with CCRF-CEM [8] was over 10700 nM throughout.

On to `C#CCN(Cc1ccc2nc(C)nc(O)c2c1)c1cccc(C(F)(F)F)c1`, for which, at Thymidylate synthase [5], affinity was put at a Ki of 450 nM. Further, the IC50 in the assay with GC3/MTK- [9], in the assay on L1210 [7] and in the assay with CCRF-CEM [8] was over 4300 nM in each case.

Take `Nc1nc2cc3c(cc2[nH]1)N(Cc1ccc(S(=O)(=O)c2ccccc2)cc1)CCC3`: the half-inhibitory concentration (IC50) is 3900 nM in the assay on CCRF-CEM [1], over 5000 nM with GC3/MTK- [9] and 2000 nM in the assay on L1210 [2]. Moreover, at Thymidylate synthase [5], the affinity corresponds to a Ki of 43 nM.

For the compound `CN(Cc1ccc(S(=O)(=O)c2ccccc2)cc1)c1ccc2c3c(cccc13)C(N)=N2`, the IC50 with CCRF-CEM [1] was 1600 nM; in the assay with L1210 [2], 380 nM; in the assay on GC3/MTK- [3], 4600 nM.

In the case of `CN(Cc1ccc(S(=O)(=O)c2ccccc2)cc1)c1ccc2c3c(cccc13)C(=O)N2`, the 50% inhibitory concentration (IC50) in the assay on GC3/MTK- [9] was over 5000 nM.

Take `C#CCN(Cc1ccc2nc(C)nc(O)c2c1)c1ccc(S(=O)(=O)c2ccccc2)c(C(F)(F)F)c1`: the IC50 in the assay with CCRF-CEM [1] is 3500 nM; in the assay on L1210 [2], 2000 nM; in the assay on GC3/MTK- [3], 7500 nM.

Consider `CN(Cc1ccc(S(=O)(=O)N2CCNCC2)cc1)c1ccc2c3c(cccc13)C(=O)N2`, for which the IC50 in the assay with CCRF-CEM [1] stood at 8300 nM; in the assay on L1210 [2] it was 2300 nM; in the assay with GC3/MTK- [3], 25000 nM.

Take `C#CCN(Cc1ccc2[nH]c(N)nc(=O)c2c1)c1ccc(C(=O)NC(CCC(=O)O)C(=O)O)cc1` (centres undefined): the values for the IC50 in the assay with CCRF-CEM [1], with L1210 [2] and in the assay on GC3/MTK- [3] were 750 nM, 3500 nM and 1400 nM, respectively.

On to `Nc1nc2cc3c(cc2[nH]1)N(Cc1ccc(S(=O)(=O)N2CCNCC2)cc1)CCC3`, for which the IC50 with CCRF-CEM [1] was 2200 nM; with GC3/MTK- [9] it was over 50000 nM; with L1210 [2] it was 2050 nM.

In general, IC50 refers to the point on the concentration scale where inhibition reaches its midpoint. As usually defined, the Ki is the equilibrium dissociation constant of an inhibitor or competing ligand from its target. A low value points to tighter binding.

These data come from ChEMBL document CHEMBL1125269, “Design of enzyme inhibitors using iterative protein crystallographic analysis” (J Med Chem, 1991).
